Measured values as given in ChEMBL document CHEMBL5338719, “Recent advance on pleiotropic cholinesterase inhibitors bearing amyloid modulation efficacy” (Eur J Med Chem, 2022).
Values belong to the compound of their own block, whether it stands above or below them.

What was measured:
Acetylcholinesterase [1] = target: T1, Acetylcholinesterase (Homo sapiens, UniProt P22303); test: Inhibition of human AChE by Ellmans method
Cholinesterase [2] = target: T2, Cholinesterase (Homo sapiens, UniProt P06276); test: Inhibition of human BChE by Ellmans method
Beta-secretase 1 [3] = target: T3, Beta-secretase 1 (Homo sapiens, UniProt P56817); test: Inhibition of BACE1 (unknown origin) by FRET-based fluorescent analysis
[4] = target: T4, Amyloid-beta precursor protein (Homo sapiens, UniProt P05067); test: Inhibition of amyloid beta 42 (unknown origin) self aggregation incubated for 48 hrs by fluoroMax-4 spectrofluorometeric analysis
Cholinesterase [5] = target: T2, Cholinesterase; test: Inhibition of human recombinant BChE by Ellmans method preincubated for 5 mins followed by substrate addition measured every 2 mins
Acetylcholinesterase [6] = target: T1, Acetylcholinesterase; test: Inhibition of human recombinant AChE preincubated for 5 mins followed by substrate addition measured every 2 mins by Ellmans method
[7] = target: T4, Amyloid-beta precursor protein; test: Inhibition of amyloid beta 42 (unknown origin) aggregation at 25 uM by Thioflavin T-based fluorescence assay relative to control
Acetylcholinesterase [8] = target: T1, Acetylcholinesterase; test: Inhibition of human AChE by Ellman's method
Cholinesterase [9] = target: T5, Cholinesterase (Equus caballus, UniProt P81908); test: Inhibition of equine BChE by Ellman's method
[10] = target: T4, Amyloid-beta precursor protein; test: Inhibition of amyloid beta 42 (unknown origin) self aggregation at 25 uM by ThT fluorometric assay relative to control
Acetylcholinesterase [11] = target: T6, Acetylcholinesterase (Electrophorus electricus, UniProt O42275); test: Inhibition of electric eel AChE by Ellman's method
Acetylcholinesterase [12] = target: T6, Acetylcholinesterase; test: Inhibition of electric eel AChE incubated for 15 mins by Ellman's method
Cholinesterase [13] = target: T5, Cholinesterase; test: Inhibition of equine BChE incubated for 15 mins by Ellman's method
Beta-secretase 1 [14] = target: T3, Beta-secretase 1; test: Inhibition of BACE1 (unknown origin) expressed in purified baculovirus using RhEVNLDAEFK-Quencher as substrate incubated at 50 uM for 90 mins in dark relative to control
Acetylcholinesterase [15] = target: Acetylcholinesterase (Torpedo californica, UniProt P04058); test: Inhibition of pacific electric ray AChE; design: species or system Tetronarce californica
[16] = target: T4, Amyloid-beta precursor protein; test: Inhibition of amyloid beta 42 (unknown origin) aggregation at 80 uM relative to control
Acetylcholinesterase [17] = target: T7, Acetylcholinesterase (Rattus norvegicus, UniProt P37136); test: Inhibition of rat cortex homogenate AChE by Ellman's method; type: tissue-based
T7 sequence (P37136 whole entry): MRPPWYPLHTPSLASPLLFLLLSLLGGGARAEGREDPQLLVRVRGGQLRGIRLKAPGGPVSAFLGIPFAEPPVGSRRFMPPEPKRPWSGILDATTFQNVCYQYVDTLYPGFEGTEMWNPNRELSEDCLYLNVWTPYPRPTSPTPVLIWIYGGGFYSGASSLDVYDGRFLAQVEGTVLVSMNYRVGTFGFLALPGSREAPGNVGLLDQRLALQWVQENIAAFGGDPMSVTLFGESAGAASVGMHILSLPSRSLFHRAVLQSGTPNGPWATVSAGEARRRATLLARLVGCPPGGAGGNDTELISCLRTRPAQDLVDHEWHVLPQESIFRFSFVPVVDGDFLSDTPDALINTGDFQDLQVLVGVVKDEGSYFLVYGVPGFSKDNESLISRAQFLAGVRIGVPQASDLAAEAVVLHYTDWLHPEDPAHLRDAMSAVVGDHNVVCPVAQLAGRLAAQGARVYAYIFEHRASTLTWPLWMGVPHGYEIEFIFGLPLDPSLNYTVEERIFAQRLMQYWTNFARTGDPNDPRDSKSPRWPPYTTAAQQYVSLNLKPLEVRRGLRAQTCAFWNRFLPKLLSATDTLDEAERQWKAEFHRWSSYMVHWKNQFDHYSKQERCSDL

[18] = target: T4, Amyloid-beta precursor protein; test: Inhibition of amyloid beta 1 to 42 (unknown origin) self induced aggregation at 25 uM by ThT fluorescence assay relative to control
Acetylcholinesterase [19] = target: T1, Acetylcholinesterase; test: Inhibition of human AChE
Cholinesterase [20] = target: T2, Cholinesterase; test: Inhibition of human BChE
Cholinesterase [21] = target: T5, Cholinesterase; test: Inhibition of equine BChE using butyrylthiocholine iodide incubated for 3 mins by Ellman's method
[22] = target: T4, Amyloid-beta precursor protein; test: Inhibition of amyloid beta 42 (unknown origin) self aggregation at 10 uM relative to control
Acetylcholinesterase [23] = target: T6, Acetylcholinesterase; test: Inhibition of electric eel AchE using acetylthiocholine as substrate by Ellman's method
Cholinesterase [24] = target: T5, Cholinesterase; test: Inhibition of equine BChE using butyrylthiocholine as substrate by Ellman's method
[25] = target: T4, Amyloid-beta precursor protein; test: Inhibition of amyloid beta 42 (unknown origin) aggregation at 25 uM relative to control
[26] = target: T4, Amyloid-beta precursor protein; test: Inhibition of amyloid beta 1 to 42 (unknown origin) self induced aggregation at 100 uM by thioflavin T-based fluorometric assay relative to control
[27] = target: T4, Amyloid-beta precursor protein; test: Inhibition of amyloid beta 1 to 42 (unknown origin) CuCl2 induced aggregation at 40 uM by ThT fluorometric assay relative to control
Beta-secretase 1 [28] = target: T3, Beta-secretase 1; test: Inhibition of BACE1 (unknown origin) at 50 uM by FRET assay relative to control
[29] = target: T4, Amyloid-beta precursor protein; test: Inhibition of amyloid beta 1 to 42 (unknown origin) aggregation at 50 uM by ThT binding assay relative to control
Acetylcholinesterase [30] = target: T6, Acetylcholinesterase; test: Inhibition of electric eel AChE using acetylthiocholine iodine as substrate by Ellman's method

T2 sequence (P06276 whole entry): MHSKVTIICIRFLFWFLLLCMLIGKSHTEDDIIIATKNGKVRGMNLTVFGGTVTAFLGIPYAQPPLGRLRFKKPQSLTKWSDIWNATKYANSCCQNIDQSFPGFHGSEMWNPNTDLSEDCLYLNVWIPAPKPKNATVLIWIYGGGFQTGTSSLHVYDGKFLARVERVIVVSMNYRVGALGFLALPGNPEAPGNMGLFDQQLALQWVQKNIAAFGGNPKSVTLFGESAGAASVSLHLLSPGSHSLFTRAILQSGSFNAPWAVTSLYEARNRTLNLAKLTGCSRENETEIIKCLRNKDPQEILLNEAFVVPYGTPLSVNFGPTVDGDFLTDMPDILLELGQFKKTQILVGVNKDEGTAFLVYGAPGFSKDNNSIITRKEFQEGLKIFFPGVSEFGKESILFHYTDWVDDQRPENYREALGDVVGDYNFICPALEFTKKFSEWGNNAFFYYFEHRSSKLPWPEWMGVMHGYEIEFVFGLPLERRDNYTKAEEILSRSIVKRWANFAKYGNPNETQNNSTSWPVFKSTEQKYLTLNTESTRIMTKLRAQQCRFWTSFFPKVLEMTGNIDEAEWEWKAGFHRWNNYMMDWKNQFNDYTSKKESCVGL
T5 sequence (P81908 whole entry): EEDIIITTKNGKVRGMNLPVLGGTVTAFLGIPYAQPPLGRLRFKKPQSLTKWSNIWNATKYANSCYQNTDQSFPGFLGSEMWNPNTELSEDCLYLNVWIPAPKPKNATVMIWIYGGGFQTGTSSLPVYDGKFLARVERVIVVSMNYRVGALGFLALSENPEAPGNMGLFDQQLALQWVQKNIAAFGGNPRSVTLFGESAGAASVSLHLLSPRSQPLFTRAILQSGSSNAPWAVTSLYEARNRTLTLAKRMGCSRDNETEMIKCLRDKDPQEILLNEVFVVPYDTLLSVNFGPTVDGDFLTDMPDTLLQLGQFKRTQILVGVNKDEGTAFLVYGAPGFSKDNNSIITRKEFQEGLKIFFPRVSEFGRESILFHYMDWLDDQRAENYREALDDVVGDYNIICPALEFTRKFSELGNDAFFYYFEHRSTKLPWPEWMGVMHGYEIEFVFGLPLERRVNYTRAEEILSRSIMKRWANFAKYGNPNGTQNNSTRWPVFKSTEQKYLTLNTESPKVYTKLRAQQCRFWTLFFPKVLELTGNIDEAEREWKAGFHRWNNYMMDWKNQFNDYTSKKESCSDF
T3 sequence (P56817 whole entry): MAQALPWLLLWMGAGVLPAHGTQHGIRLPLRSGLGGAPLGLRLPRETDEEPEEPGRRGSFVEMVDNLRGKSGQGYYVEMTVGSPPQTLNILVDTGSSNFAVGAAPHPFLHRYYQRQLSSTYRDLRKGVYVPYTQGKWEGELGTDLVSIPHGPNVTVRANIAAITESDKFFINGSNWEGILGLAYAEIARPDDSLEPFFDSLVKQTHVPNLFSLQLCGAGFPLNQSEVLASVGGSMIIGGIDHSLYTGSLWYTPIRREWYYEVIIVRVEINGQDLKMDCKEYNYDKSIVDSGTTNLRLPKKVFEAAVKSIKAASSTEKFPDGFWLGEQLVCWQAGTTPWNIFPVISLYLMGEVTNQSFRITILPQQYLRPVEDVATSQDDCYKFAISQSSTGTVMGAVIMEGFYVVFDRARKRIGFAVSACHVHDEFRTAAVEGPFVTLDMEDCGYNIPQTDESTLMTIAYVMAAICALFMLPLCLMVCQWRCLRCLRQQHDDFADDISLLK
T6 sequence (O42275 whole entry): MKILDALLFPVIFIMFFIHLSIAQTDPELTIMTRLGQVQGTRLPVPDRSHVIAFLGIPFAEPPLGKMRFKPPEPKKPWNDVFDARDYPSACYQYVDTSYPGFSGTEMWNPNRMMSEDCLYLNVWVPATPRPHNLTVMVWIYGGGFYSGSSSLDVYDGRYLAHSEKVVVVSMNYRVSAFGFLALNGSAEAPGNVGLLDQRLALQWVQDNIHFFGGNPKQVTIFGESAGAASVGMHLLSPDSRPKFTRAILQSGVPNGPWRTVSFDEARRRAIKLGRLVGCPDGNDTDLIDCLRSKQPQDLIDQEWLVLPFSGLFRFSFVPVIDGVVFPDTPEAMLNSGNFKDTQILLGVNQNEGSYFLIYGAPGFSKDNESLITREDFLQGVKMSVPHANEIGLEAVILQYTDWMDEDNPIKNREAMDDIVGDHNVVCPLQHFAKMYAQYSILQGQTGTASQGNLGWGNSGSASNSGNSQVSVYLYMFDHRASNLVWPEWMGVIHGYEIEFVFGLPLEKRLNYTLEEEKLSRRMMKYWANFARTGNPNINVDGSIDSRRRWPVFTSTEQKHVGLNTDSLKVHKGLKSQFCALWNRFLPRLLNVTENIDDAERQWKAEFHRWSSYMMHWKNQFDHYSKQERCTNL
T1 sequence (P22303 whole entry): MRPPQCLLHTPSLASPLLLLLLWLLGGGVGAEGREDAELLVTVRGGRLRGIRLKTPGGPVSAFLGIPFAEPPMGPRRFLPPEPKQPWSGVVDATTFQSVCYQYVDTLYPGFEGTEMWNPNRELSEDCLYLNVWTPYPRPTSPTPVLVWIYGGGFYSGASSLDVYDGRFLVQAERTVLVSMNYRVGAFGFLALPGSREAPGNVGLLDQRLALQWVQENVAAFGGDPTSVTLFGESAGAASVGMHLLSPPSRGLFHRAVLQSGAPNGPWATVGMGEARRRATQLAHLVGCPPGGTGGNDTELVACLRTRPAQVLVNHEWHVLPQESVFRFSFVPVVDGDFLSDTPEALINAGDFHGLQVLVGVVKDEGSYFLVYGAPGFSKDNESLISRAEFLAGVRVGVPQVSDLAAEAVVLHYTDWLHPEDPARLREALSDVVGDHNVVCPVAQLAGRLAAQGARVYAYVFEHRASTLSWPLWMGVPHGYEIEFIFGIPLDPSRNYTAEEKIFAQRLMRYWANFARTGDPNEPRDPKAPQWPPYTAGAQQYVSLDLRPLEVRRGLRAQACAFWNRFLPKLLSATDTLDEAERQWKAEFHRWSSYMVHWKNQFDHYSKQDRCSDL
T4 sequence (P05067 whole entry): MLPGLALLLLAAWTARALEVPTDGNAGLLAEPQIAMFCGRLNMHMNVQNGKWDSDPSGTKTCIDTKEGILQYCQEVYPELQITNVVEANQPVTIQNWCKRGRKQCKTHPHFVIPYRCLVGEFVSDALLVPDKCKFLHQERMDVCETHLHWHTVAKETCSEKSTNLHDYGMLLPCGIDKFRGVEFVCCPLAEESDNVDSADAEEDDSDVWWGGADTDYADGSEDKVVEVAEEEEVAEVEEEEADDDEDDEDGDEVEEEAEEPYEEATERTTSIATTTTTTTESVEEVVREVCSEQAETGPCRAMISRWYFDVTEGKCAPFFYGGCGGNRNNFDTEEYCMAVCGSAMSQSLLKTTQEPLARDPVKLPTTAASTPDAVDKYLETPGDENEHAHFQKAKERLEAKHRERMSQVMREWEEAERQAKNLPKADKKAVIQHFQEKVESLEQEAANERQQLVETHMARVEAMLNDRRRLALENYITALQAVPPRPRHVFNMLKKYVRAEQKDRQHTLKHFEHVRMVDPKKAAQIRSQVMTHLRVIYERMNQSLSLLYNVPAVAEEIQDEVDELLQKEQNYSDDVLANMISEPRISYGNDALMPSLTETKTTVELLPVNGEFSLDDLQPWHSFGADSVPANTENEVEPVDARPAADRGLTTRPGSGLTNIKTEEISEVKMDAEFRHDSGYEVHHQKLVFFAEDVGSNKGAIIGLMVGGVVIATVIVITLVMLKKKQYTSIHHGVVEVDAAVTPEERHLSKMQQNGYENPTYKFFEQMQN
Sequence of Acetylcholinesterase (Torpedo californica, UniProt P04058) (P04058 whole entry): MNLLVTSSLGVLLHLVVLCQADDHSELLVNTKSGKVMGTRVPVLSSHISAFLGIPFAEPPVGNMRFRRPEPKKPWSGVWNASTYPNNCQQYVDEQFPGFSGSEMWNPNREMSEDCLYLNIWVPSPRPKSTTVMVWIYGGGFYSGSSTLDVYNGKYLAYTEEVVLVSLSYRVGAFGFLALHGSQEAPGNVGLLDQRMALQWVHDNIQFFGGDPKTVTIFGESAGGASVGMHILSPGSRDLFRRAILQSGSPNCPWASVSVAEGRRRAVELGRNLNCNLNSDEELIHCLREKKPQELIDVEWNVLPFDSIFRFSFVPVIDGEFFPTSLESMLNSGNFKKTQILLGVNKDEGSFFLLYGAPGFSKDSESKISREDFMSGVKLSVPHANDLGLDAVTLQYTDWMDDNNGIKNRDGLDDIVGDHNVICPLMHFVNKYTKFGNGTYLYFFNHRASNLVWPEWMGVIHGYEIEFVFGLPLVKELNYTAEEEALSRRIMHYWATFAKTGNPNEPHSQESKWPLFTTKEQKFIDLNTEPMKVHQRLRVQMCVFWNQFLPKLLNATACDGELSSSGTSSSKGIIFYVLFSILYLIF

Compound: FC(F)(F)c1ccc(-c2nnc(CNC3CCN(Cc4ccccc4)C3)o2)cc1 (configuration not stated)
IC50 (Acetylcholinesterase [1]): 0.064 µM
IC50 (Cholinesterase [2]): 0.074 µM
IC50 (Beta-secretase 1 [3]): 0.143 µM

Compound: O=C(NCCCNc1c2c(nc3cc(Cl)ccc13)CCCC2)c1nc2ccc([N+](=O)[O-])cc2s1
IC50 [4]: 3.8 µM
IC50 (Cholinesterase [5]): 4660 µM
IC50 (Acetylcholinesterase [6]): 0.018 µM

Compound: c1cc2[nH]c3nc(NCCCCCCN4CCCC4)nnc3c2cc1N1CCCCC1
inhibition [7]: 54.3%
IC50 (Acetylcholinesterase [8]): 0.32 µM
IC50 (Cholinesterase [9]): 0.21 µM

Compound: O=C(/C=C/c1cccs1)N1CCc2ccccc2C1
inhibition [10]: 65.2%
IC50 (Cholinesterase [2]): 2.5 µM
IC50 (Acetylcholinesterase [11]): 19.4 µM

Compound: O=C(NC1CCN(Cc2ccccc2)CC1)c1cc(-c2cccc([N+](=O)[O-])c2)on1
IC50 (Acetylcholinesterase [12]): 16.1 µM
IC50 (Cholinesterase [13]): 15.2 µM
inhibition (Beta-secretase 1 [14]): 24.3%

Compound: COc1cccc2cc(C(=O)NCCCNc3c4c(nc5cc(Cl)ccc35)CCCC4)oc12
IC50 (Acetylcholinesterase [15]): 0.13 µM
inhibition [16]: 57.8%

Compound: CCN(CCCCCCOc1ccc(/C=C/C(=O)c2c(O)cc(OC)c(O)c2OC)cc1)Cc1ccccc1OC
IC50 (Acetylcholinesterase [17]): 0.41 µM
inhibition [18]: 78%

Compound: S=C(NCCCCNc1c2c(nc3ccccc13)CCCC2)Nc1c[nH]c2ccccc12
IC50 (Acetylcholinesterase [19]): 0.025 µM
IC50 (Cholinesterase [20]): 0.076 µM

Compound: O=C(CCCCC1CCSS1)NCc1cn(CCCCOc2ccc3c(=O)ccoc3c2)nn1 (configuration not stated)
IC50 (Cholinesterase [21]): 7.5 µM

inhibition [22]: 94.6%
Compound: CN(C)CCN1CCN(c2ccc(C(=O)/C=C/c3cc4ccccc4o3)cc2)CC1

Compound: CCc1cc(-c2nnc(Nc3ccccc3Cl)s2)c(O)cc1O
inhibition [7]: 55.8%
IC50 (Acetylcholinesterase [23]): 0.031 µM
IC50 (Cholinesterase [24]): 18.3 µM

inhibition [25]: 71.1%
Compound: O=C(CCCN(Cc1ccccn1)Cc1ccccn1)NCCCNc1c2c(nc3ccccc13)CCCC2

inhibition [26]: 62.1%
Compound: CCN(CCCCCOc1cc(O)c2c(c1)OC(c1ccc(O)cc1)CC2=O)Cc1ccccc1 (configuration not stated)

inhibition [27]: 78.4%
Compound: CC(C)C1NC(=O)C=C1NCCN1CCN(Cc2ccccc2)CC1 (configuration not stated)

Compound: COc1ccc(/C=C/C(=O)NCCc2cc3ccccc3[nH]2)cc1OC
inhibition (Beta-secretase 1 [28]): 40.7%
inhibition [29]: 10.1%
IC50 (Acetylcholinesterase [30]): 11.5 µM
